Source: PMC11859184, “Synthesis and Evaluation of ^68Ga- and ^177Lu-Labeled [diF-Pro^14]Bombesin(6−14) Analogs for Detection and Radioligand Therapy of Gastrin-Releasing Peptide Receptor-Expressing Cancer” (Pharmaceuticals, 2025)
Like-named read-outs stand apart in the source and are kept apart here.

Test: Ex vivo biodistribution of 177Lu-labeled ligands in PC-3 tumor-bearing mice
Details: mouse, intravenous; for tissue uptake at 1 h: 1 h pi; for tissue uptake at 4 h: 4 h pi; for tissue uptake at 24 h: 24 h pi; for tissue uptake at 72 h: 72 h pi
Experimental: SPECT/CT imaging was conducted using an MI Labs (Houten, The Netherlands) U-SPECT-II/CT scanner with a custom-made ultra-high sensitivity big mouse collimator (2 mm pinhole size) following published procedure. The experiments were obtained in accordance with the same protocol established in the PET/CT imaging and ex vivo biodistributions section. The mice were used for SPECT/CT imaging and ex vivo biodistributions studies once the tumors reached a diameter of 5–8 mm. PC-3 tumor-bearing mice were sedated (2.5% isoflurane in O2) and injected with 31.4–36.9 MBq of the ^177Lu-labeled ligand through a lateral caudal tail vein. The mouse was imaged at 1, 4, 24, 72, and 120 h pi. At each time point, a 5 min CT scan was performed with 615 μA and 60 kV parameters for localization and attenuation, followed by two 30 min static SPECT scans in list mode with an energy window centered around 208 keV. The U-SPECT II software was used to reconstruct data, and the images were decay corrected to the time of injection with PMOD v 3.402 (PMOD Technologies GmbH, Fallanden, Switzerland).
For ex vivo biodistribution studies, the mice were injected with ~3–5 MBq of the ^177Lu-labeled ligand (n = 5). At 1, 4, 24, 72, and 120 h post-injection, the mice were anesthetized with 2% isoflurane, euthanized by CO2 inhalation, and the tissues/organs of interest were […] for radioactivity counting. The blocking study was performed at 1 h pi via co-injection of the ^177Lu-labeled ligand with 100 μg of [D-Phe^6,Leu-NHEt^13,des-Met^14]Bombesin(6–14).

[1] = kidneys, n = 5, read-out: Kidneys uptake
[2] = large intestine, n = 5, read-out: Large intestine uptake
[3] = liver, n = 5, read-out: Liver uptake
[4] = lungs, n = 5, read-out: Lungs uptake
[5] = muscle, n = 5, read-out: Muscle uptake
[6] = pancreas, n = 5, read-out: Pancreas uptake
[7] = small intestine, n = 5, read-out: Small intestine uptake
[8] = spleen, n = 5, read-out: Spleen uptake
[9] = stomach, n = 5, read-out: Stomach uptake
[10] = testes, n = 5, read-out: Testes uptake

tissue uptake at 120 h (heart, 120 h pi, n = 5, read-out: Heart uptake): 0.01 ± 0.01 %ID/g
tissue uptake at 1 h (kidneys, 100 ug, blocked (100 µg GRPR antagonist co-injected), read-out: Kidneys uptake): 4.17 ± 0.95 %ID/g
tissue uptake at 1 h [1]: 2.65 ± 0.48 %ID/g
tissue uptake at 4 h [1]: 1.88 ± 0.35 %ID/g
tissue uptake at 24 h [1]: 0.89 ± 0.28 %ID/g
tissue uptake at 72 h [1]: 0.26 ± 0.08 %ID/g
tissue uptake at 120 h (kidneys, 120 h pi, n = 5, read-out: Kidneys uptake): 0.12 ± 0.03 %ID/g
tissue uptake at 1 h (large intestine, 100 ug, blocked (100 µg GRPR antagonist co-injected), read-out: Large intestine uptake): 0.21 ± 0.09 %ID/g
tissue uptake at 1 h [2]: 0.17 ± 0.09 %ID/g
tissue uptake at 4 h [2]: 0.34 ± 0.04 %ID/g
tissue uptake at 24 h [2]: 0.15 ± 0.06 %ID/g
tissue uptake at 72 h [2]: 0.06 ± 0.02 %ID/g
tissue uptake at 120 h (large intestine, 120 h pi, n = 5, read-out: Large intestine uptake): 0.02 ± 0.01 %ID/g
tissue uptake at 1 h (liver, 100 ug, blocked (100 µg GRPR antagonist co-injected), read-out: Liver uptake): 0.33 ± 0.08 %ID/g
tissue uptake at 1 h [3]: 0.27 ± 0.1 %ID/g
tissue uptake at 4 h [3]: 0.2 ± 0.08 %ID/g
tissue uptake at 24 h [3]: 0.09 ± 0.01 %ID/g
tissue uptake at 72 h [3]: 0.04 ± 0.01 %ID/g
tissue uptake at 120 h (liver, 120 h pi, n = 5, read-out: Liver uptake): 0.03 ± 0.01 %ID/g
tissue uptake at 1 h (lungs, 100 ug, blocked (100 µg GRPR antagonist co-injected), read-out: Lungs uptake): 0.45 ± 0.22 %ID/g
tissue uptake at 1 h [4]: 0.43 ± 0.04 %ID/g
tissue uptake at 4 h [4]: 0.13 ± 0.08 %ID/g
tissue uptake at 24 h [4]: 0.05 ± 0.03 %ID/g
tissue uptake at 72 h [4]: 0.02 %ID/g
tissue uptake at 120 h (lungs, 120 h pi, n = 5, read-out: Lungs uptake): 0.05 ± 0.03 %ID/g
tissue uptake at 1 h (muscle, 100 ug, blocked (100 µg GRPR antagonist co-injected), read-out: Muscle uptake): 0.15 ± 0.04 %ID/g
tissue uptake at 1 h [5]: 0.06 ± 0.01 %ID/g
tissue uptake at 4 h [5]: 0.01 %ID/g
tissue uptake at 24 h [5]: 0.01 %ID/g
tissue uptake at 1 h (pancreas, 100 ug, blocked (100 µg GRPR antagonist co-injected), read-out: Pancreas uptake): 0.34 ± 0.09 %ID/g
tissue uptake at 1 h [6]: 0.39 ± 0.08 %ID/g
tissue uptake at 4 h [6]: 0.06 ± 0.02 %ID/g
tissue uptake at 24 h [6]: 0.04 ± 0.01 %ID/g
tissue uptake at 72 h [6]: 0.01 %ID/g
tissue uptake at 120 h (pancreas, 120 h pi, n = 5, read-out: Pancreas uptake): 0.01 %ID/g
tissue uptake at 120 h (pancreas, all time points (1, 4, 24, 72, 120 h pi), read-out: pancreas uptake): < 0.5 %ID/g
tissue uptake at 1 h (small intestine, 100 ug, blocked (100 µg GRPR antagonist co-injected), read-out: Small intestine uptake): 0.48 ± 0.18 %ID/g
tissue uptake at 1 h [7]: 0.28 ± 0.03 %ID/g
tissue uptake at 4 h [7]: 0.07 ± 0.03 %ID/g
tissue uptake at 24 h [7]: 0.03 ± 0.01 %ID/g
tissue uptake at 72 h [7]: 0.01 %ID/g
tissue uptake at 120 h (small intestine, 120 h pi, n = 5, read-out: Small intestine uptake): 0.01 %ID/g
tissue uptake at 1 h (spleen, 100 ug, blocked (100 µg GRPR antagonist co-injected), read-out: Spleen uptake): 0.16 ± 0.05 %ID/g
tissue uptake at 1 h [8]: 0.14 ± 0.04 %ID/g
tissue uptake at 4 h [8]: 0.07 ± 0.01 %ID/g
tissue uptake at 24 h [8]: 0.07 ± 0.02 %ID/g
tissue uptake at 72 h [8]: 0.04 ± 0.01 %ID/g
tissue uptake at 120 h (spleen, 120 h pi, n = 5, read-out: Spleen uptake): 0.03 %ID/g
tissue uptake at 1 h (stomach, 100 ug, blocked (100 µg GRPR antagonist co-injected), read-out: Stomach uptake): 0.26 ± 0.14 %ID/g
tissue uptake at 1 h [9]: 0.08 ± 0.04 %ID/g
tissue uptake at 4 h [9]: 0.02 %ID/g
tissue uptake at 24 h [9]: 0.07 ± 0.04 %ID/g
tissue uptake at 72 h [9]: 0.02 ± 0.01 %ID/g
tissue uptake at 120 h (stomach, 120 h pi, n = 5, read-out: Stomach uptake): 0.01 ± 0.01 %ID/g
tissue uptake at 1 h (testes, 100 ug, blocked (100 µg GRPR antagonist co-injected), read-out: Testes uptake): 0.22 ± 0.09 %ID/g
tissue uptake at 1 h [10]: 0.2 ± 0.04 %ID/g
tissue uptake at 4 h [10]: 0.03 ± 0.01 %ID/g
tissue uptake at 24 h [10]: 0.03 ± 0.01 %ID/g
tissue uptake at 72 h [10]: 0.01 %ID/g
tissue uptake at 120 h (testes, 120 h pi, n = 5, read-out: Testes uptake): 0.01 %ID/g
SMILES: CC(C)C[C@@H](CN1CC(F)(F)C[C@H]1C(N)=O)NC(=O)[C@H](Cc1c[nH]cn1)NC(=O)CN(C)C(=O)[C@@H](NC(=O)[C@H](C)NC(=O)[C@H](Cc1c[nH]c2ccccc12)NC(=O)[C@H](CCC(N)=O)NC(=O)[C@@H](Cc1ccccc1)NC(=O)CN1CCC(NC(=O)CN2CCN(CC(=O)O)CCN(CC(=O)O)CCN(CC(=O)O)CC2)CC1)C(C)C [[^177Lu]Lu-LW02080, metal not drawn]
